Experimental data: US20050282743A1, “Molecular interactions in cells” (Arbor Vita Corporation, priority 2001, published 2005)
Ends that are not written are not given here. Peptide text beside a SMILES is read from it. * marks the point of attachment. Biotin = O=C1N[C@H]2[C@H](CS[C@H]2CCCCC(=O)*)N1

Legend:
Assay in all cases: G' assay (10 uM PL peptide), results of TABLE 7 and TABLE 12
Type in all cases: binding
[1] = target: T1, PDZ protein (GST-PDZ fusion) (Homo sapiens, UniProt O14908); settings: PDZ TAX IP2, PDZ Domain 1
T1 construct: made in house; host or cells: E. coli (DH5alpha, BL21 or JM109)
T1 sequence (O14908 1-333): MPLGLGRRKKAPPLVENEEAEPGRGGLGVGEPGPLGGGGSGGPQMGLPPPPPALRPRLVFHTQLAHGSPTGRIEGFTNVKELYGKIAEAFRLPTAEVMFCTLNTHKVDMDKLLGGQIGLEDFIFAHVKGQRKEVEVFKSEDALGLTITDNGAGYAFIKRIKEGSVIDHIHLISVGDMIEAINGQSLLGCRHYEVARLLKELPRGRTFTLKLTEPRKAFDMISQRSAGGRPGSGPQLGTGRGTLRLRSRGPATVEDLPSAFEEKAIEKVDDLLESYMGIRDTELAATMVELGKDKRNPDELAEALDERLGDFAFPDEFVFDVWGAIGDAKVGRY
Outline: (§1)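 Binding classes derive from A450 nm of bound biotin-tagged PL peptide. A score of 5 needs A450 above 4 in more than two repeats.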

[2] = target: T2, PDZ protein (GST-PDZ fusion) (Homo sapiens, UniProt P50479); settings: PDZ LIM RIL, PDZ Domain 1
T2 construct: made in house; host or cells: E. coli (DH5alpha, BL21 or JM109)
T2 sequence (P50479 1-330): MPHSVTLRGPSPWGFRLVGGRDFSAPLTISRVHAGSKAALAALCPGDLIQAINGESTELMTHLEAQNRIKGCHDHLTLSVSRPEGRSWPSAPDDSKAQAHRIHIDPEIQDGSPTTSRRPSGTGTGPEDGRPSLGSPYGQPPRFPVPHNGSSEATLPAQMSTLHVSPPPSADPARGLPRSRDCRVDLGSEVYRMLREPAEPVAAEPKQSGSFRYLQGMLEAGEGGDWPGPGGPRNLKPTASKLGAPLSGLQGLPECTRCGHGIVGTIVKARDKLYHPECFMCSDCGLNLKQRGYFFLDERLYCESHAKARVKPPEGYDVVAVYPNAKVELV
Outline: as §1

[3] = target: T3, PDZ protein (GST-PDZ fusion) (Homo sapiens, UniProt Q96JY6); settings: PDZ LIM-Mystique, PDZ Domain 1
T3 construct: made in house; host or cells: E. coli (DH5alpha, BL21 or JM109)
T3 sequence (Q96JY6 1-352): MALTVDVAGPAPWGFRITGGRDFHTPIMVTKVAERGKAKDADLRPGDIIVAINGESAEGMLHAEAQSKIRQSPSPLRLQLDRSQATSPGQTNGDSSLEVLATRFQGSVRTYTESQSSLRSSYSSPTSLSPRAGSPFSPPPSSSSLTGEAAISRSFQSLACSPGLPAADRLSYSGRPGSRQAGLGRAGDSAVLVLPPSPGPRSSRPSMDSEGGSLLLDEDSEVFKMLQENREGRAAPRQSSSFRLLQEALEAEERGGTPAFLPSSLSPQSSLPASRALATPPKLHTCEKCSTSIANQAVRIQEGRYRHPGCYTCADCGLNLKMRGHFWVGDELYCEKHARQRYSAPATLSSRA
Outline: as §1

[4] = target: T4, PDZ protein (GST-PDZ fusion) (Homo sapiens, UniProt Q96RT1); settings: PDZ Erbin, PDZ Domain 1
T4 construct: made in house; host or cells: E. coli (DH5alpha, BL21 or JM109)
Outline: as §1

[5] = target: T5, PDZ protein (GST-PDZ fusion) (Homo sapiens, UniProt Q9NY99); settings: PDZ Syntrophin gamma-2, PDZ Domain 1
T5 construct: made in house; host or cells: E. coli (DH5alpha, BL21 or JM109)
T5 sequence (Q9NY99 1-539): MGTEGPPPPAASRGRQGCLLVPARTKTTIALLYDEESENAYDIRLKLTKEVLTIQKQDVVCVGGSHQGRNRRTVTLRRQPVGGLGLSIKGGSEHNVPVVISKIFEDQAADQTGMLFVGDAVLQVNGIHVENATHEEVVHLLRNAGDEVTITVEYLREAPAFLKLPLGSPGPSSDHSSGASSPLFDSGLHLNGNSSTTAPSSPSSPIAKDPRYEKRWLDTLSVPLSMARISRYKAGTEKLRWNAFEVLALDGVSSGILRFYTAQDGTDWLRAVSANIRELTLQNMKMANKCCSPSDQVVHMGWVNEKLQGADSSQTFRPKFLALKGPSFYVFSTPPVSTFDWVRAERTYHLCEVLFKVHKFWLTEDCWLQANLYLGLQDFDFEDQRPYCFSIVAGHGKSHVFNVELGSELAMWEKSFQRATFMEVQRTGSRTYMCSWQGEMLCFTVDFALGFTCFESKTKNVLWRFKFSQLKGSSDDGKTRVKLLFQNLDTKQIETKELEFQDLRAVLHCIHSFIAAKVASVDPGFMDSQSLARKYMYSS
Outline: as §1

[6] = target: T6, PDZ protein (GST-PDZ fusion) (Homo sapiens, UniProt Q07157)
T6 construct: made in house; host or cells: E. coli (DH5alpha, BL21 or JM109)
Outline: as §1

[7] = target: T7, PDZ protein (GST-PDZ fusion) (Homo sapiens, UniProt Q9HD26); settings: PDZ PIST, PDZ Domain 1
T7 construct: made in house; host or cells: E. coli (DH5alpha, BL21 or JM109)
Outline: as §1

T6 sequence (Q07157 whole entry, the tested form may be a part): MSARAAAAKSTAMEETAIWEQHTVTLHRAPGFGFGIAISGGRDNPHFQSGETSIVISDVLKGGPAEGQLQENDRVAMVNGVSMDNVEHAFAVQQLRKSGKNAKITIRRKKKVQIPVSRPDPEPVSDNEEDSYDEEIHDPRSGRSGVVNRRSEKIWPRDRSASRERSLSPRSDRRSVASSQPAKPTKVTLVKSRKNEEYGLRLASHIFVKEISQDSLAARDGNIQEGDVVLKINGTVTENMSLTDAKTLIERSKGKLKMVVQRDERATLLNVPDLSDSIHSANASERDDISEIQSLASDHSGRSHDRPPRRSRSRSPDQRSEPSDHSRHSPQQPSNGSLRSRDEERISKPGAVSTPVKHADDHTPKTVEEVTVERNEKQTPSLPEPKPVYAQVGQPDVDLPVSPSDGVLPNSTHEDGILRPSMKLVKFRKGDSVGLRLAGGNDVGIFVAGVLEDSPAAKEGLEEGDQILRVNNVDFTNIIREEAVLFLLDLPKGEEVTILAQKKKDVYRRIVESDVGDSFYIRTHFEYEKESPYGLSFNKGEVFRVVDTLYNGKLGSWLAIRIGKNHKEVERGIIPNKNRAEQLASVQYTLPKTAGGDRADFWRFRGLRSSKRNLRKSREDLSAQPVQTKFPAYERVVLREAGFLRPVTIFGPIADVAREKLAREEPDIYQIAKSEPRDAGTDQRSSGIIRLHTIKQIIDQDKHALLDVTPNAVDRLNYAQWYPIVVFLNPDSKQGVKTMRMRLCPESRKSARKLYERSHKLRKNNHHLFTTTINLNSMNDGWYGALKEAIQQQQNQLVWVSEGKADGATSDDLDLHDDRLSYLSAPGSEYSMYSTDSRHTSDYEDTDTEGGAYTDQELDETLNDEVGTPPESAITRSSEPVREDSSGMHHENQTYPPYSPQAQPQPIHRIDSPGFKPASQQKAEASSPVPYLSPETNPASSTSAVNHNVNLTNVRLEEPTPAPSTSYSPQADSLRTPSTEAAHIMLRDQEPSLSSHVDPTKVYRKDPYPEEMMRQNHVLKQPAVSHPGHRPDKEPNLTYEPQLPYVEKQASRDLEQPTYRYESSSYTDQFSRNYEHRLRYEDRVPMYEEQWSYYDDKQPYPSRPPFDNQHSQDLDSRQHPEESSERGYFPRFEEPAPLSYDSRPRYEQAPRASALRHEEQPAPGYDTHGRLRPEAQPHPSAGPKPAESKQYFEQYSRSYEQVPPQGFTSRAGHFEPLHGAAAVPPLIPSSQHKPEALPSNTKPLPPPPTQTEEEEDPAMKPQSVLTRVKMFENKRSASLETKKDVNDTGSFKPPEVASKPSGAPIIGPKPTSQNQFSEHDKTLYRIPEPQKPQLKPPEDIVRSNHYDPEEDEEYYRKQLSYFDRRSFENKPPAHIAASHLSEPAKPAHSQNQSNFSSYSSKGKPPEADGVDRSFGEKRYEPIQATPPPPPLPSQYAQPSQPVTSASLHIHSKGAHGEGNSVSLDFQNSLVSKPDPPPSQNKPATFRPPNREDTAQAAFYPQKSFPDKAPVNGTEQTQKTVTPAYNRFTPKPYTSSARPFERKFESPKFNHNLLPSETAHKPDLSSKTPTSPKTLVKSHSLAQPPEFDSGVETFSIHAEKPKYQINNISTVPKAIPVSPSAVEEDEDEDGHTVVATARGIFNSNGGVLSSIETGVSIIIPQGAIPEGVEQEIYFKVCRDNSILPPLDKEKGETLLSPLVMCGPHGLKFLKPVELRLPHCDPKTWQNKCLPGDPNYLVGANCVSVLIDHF
T4 sequence (Q96RT1 whole entry, the tested form may be a part): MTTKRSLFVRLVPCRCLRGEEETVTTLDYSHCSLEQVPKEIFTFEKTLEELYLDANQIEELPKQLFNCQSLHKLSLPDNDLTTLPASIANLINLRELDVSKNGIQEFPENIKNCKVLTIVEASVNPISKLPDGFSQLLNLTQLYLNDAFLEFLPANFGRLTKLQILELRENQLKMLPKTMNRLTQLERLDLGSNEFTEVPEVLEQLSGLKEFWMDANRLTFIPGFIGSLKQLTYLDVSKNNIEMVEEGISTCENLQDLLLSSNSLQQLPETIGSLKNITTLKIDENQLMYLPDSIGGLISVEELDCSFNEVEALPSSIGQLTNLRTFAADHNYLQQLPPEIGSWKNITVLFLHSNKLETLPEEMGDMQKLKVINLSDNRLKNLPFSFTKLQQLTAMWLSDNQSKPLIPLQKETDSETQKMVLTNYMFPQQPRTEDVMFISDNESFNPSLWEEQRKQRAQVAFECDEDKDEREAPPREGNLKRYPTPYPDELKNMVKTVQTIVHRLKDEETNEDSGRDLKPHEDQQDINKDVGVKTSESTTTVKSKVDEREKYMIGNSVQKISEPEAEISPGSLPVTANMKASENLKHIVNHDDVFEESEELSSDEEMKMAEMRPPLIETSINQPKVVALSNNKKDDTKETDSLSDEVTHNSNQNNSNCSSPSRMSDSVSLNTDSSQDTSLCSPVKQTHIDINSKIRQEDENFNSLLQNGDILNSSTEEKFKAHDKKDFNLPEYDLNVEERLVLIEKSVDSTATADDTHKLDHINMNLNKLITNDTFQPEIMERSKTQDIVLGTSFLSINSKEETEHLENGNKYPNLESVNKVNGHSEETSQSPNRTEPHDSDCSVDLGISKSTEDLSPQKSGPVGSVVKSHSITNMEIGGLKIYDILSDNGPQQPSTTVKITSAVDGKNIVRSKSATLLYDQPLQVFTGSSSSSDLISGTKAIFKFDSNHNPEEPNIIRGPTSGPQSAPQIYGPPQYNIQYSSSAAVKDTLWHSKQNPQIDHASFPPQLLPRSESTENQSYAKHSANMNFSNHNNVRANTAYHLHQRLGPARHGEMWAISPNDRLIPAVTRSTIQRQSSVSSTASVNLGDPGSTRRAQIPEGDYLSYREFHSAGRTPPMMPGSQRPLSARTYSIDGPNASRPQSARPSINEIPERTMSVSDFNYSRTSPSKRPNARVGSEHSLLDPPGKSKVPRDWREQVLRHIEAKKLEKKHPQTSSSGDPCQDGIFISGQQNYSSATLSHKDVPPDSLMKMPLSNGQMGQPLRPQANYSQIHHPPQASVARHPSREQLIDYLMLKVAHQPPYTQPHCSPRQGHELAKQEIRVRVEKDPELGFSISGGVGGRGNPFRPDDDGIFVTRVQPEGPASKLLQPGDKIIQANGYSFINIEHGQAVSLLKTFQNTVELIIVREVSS

Question: Which results are given for TQGFPGPATWRRISSLESEV?
Answer: Classification [1]: 4 (A450 nm 3-4); Classification [2]: 5 (A450 nm of 4 more than 2× repeated); Classification [3]: 4 (A450 nm 3-4); Classification [4]: 4 (A450 nm 3-4); Classification [5]: 2 (A450 nm 1-2)

Question: Which results are given for “ELLQFCRTPNPALKNGQYWV (Biotin-ELLQFCRTPNPALKNGQYWV)”?
Answer: Classification [2]: 2 (A450 nm 1-2); Classification ([6]; PDZ ZO-1, PDZ Domain 1): 5 (A450 nm of 4 more than 2× repeated); Classification ([6]; PDZ ZO-1, PDZ Domain 2): 4 (A450 nm 3-4); Classification [3]: 2 (A450 nm 1-2); Classification [4]: 3 (A450 nm 2-3)

Question: Which Classification [1] does the source give for CC(C)C[C@H](NC(=O)[C@H](CC(=O)O)NC(=O)[C@H](CO)NC(=O)[C@H](CCC(=O)O)NC(=O)CNC(=O)[C@H](Cc1ccc(O)cc1)NC(=O)[C@H](CC(C)C)NC(=O)[C@H](C)NC(=O)[C@H](CO)NC(=O)[C@H](CO)NC(=O)[C@H](Cc1ccccc1)NC(=O)[C@H](C)NC(=O)[C@H](C)NC(=O)[C@H](Cc1ccc(O)cc1)NC(=O)[C@H](CC(=O)O)NC(=O)[C@H](CC(C)C)NC(=O)[C@H](C)NC(=O)CNC(=O)[C@@H]1CCCN1C(=O)[C@@H](NC(=O)CCCC[C@@H]1SC[C@@H]2NC(=O)N[C@@H]21)C(C)C)C(=O)O [a-actinin 2] (Biotin-VPGALDYAAFSSALYGESDL-OH; C-terminus assumed) here?
Answer: Its Classification is 5 (A450 nm of 4 more than 2× repeated).

Question: And the Classification [2]?
Answer: The Classification was 5 (A450 nm of 4 more than 2× repeated).

Question: What about the Classification [3] of the same compound?
Answer: Its Classification is 5 (A450 nm of 4 more than 2× repeated).

Question: And the Classification [4]?
Answer: The Classification was 1 (A450 nm 0-1).

Question: What about the Classification [5] of the same compound?
Answer: Its Classification is 1 (A450 nm 0-1).

Question: Which results are given for CC(C)C[C@H](NC(=O)[C@H](C)NC(=O)[C@H](CO)NC(=O)CNC(=O)[C@@H](NC(=O)CCCC[C@@H]1SC[C@@H]2NC(=O)N[C@@H]21)[C@@H](C)O)C(=O)N[C@@H](CCC(N)=O)C(=O)N[C@@H](C)C(=O)N[C@@H](Cc1c[nH]c2ccccc12)C(=O)N[C@@H](CCCNC(=N)N)C(=O)N[C@@H](Cc1c[nH]cn1)C(=O)N[C@H](C(=O)N[C@@H](CO)C(=O)N[C@@H](CCCNC(=N)N)C(=O)N[C@@H](CCC(N)=O)C(=O)N[C@@H](C)C(=O)N[C@H](C(=O)N[C@@H](CCC(=O)O)C(=O)N[C@@H](CO)C(=O)N[C@H](C(=O)N[C@H](C(=O)O)C(C)C)[C@@H](C)O)[C@@H](C)O)[C@@H](C)O [HPV E6 #66 (modified)] (Biotin-TGSALQAWRHTSRQATESTV-OH; C-terminus assumed)?
Answer: Classification [1]: 2 (A450 nm 1-2); Classification [4]: 1 (A450 nm 0-1); Classification [5]: 1 (A450 nm 0-1)

Question: Which Classification [1] does the source give for CC[C@H](C)[C@H](NC(=O)[C@H](CCC(N)=O)NC(=O)CCCC[C@@H]1SC[C@@H]2NC(=O)N[C@@H]21)C(=O)N[C@@H](CO)C(=O)N1CCC[C@H]1C(=O)NCC(=O)NCC(=O)N[C@@H](CC(C)C)C(=O)N[C@@H](CCC(=O)O)C(=O)N1CCC[C@H]1C(=O)N1CCC[C@H]1C(=O)N[C@@H](CO)C(=O)N[C@@H](CCC(=O)O)C(=O)N[C@@H](CCCCN)C(=O)N[C@@H](Cc1c[nH]cn1)C(=O)N[C@@H](Cc1ccccc1)C(=O)N[C@@H](CCCNC(=N)N)C(=O)N[C@@H](CCC(=O)O)C(=O)N[C@H](C(=O)N[C@@H](CCC(=O)O)C(=O)N[C@H](C(=O)O)C(C)C)[C@@H](C)O [Tax] here?
Answer: Its Classification is 2 (A450 nm 1-2).

Question: What about the Classification [2] of the same compound?
Answer: The Classification was 1 (A450 nm 0-1).

Question: And the Classification [3]?
Answer: Its Classification is 1 (A450 nm 0-1).

Question: What about the Classification [4] of the same compound?
Answer: The Classification was 5 (A450 nm of 4 more than 2× repeated).

Question: What about the Classification [5] of the same compound?
Answer: The Classification was 1 (A450 nm 0-1).

Question: Which results are given for CSCC[C@H](NC(=O)[C@H](C)NC(=O)[C@H](CCCNC(=N)N)NC(=O)CNC(=O)[C@@H](NC(=O)[C@H](Cc1c[nH]c2ccccc12)NC(=O)[C@H](CCCNC(=N)N)NC(=O)CNC(=O)CCCC[C@@H]1SC[C@@H]2NC(=O)N[C@@H]21)[C@@H](C)O)C(=O)N[C@@H](CO)C(=O)N[C@@H](C)C(=O)N[C@@H](Cc1c[nH]c2ccccc12)C(=O)N[C@@H](CCCCN)C(=O)N1CCC[C@H]1C(=O)N[C@H](C(=O)N[C@@H](CCCNC(=N)N)C(=O)N[C@@H](CCCNC(=N)N)C(=O)N[C@@H](CCC(=O)O)C(=O)N[C@H](C(=O)N[C@@H](CCC(=O)O)C(=O)N[C@H](C(=O)O)C(C)C)[C@@H](C)O)[C@@H](C)O [HPV E6 #35 (modified)] (Biotin-GRWTGRAMSAWKPTRRETEV-OH; C-terminus assumed)?
Answer: Classification [1]: 4 (A450 nm 3-4); Classification [2]: 4 (A450 nm 3-4); Classification ([6]; PDZ ZO-1, PDZ Domain 1): 1 (A450 nm 0-1); Classification [3]: 1 (A450 nm 0-1); Classification [4]: 2 (A450 nm 1-2); Classification [7]: 1 (A450 nm 0-1); Classification [5]: 3 (A450 nm 2-3)

Question: What does the source list for “PYSELNYETSHYPASPDSWV (Biotin-PYSELNYETSHYPASPDSWV) [catenin - delta 2]”?
Answer: Classification [2]: 2 (A450 nm 1-2); Classification [3]: 5 (A450 nm of 4 more than 2× repeated); Classification [4]: 4 (A450 nm 3-4)
